The text below walks through data of ChEMBL document CHEMBL4673391, “Multiresidue Tetrapeptide Substitutions Yield a 140-fold Selective Melanocortin-3 over Melanocortin-4 Receptor Agonist” (ACS Med Chem Lett, 2021).

pEC50, pKi: −log10 of the molar value.

The target of experiment [1] is T1, Melanocortin receptor 4 (Mus musculus, UniProt P56450). As to the kind of experiment: Agonist activity at mouse melanocortin receptor 4 expressed in HEK293 cells assessed as stimulation of cAMP accumulation incubated for 2 hrs by cAMP Alpha-screen assay. Type of experiment: functional, cell-based.
In experiment [2] the target is Melanocyte-stimulating hormone receptor (Mus musculus, UniProt Q01727). As to the kind of experiment: Agonist activity at mouse melanocortin receptor 1 expressed in HEK293 cells assessed as stimulation of cAMP accumulation incubated for 2 hrs by cAMP Alpha-screen assay. Type of experiment: functional, cell-based.
Another experiment concerns the target Melanocortin receptor 5 (Mus musculus, UniProt P41149). The experiment is described as follows: Agonist activity at mouse melanocortin receptor 5 expressed in HEK293 cells assessed as stimulation of cAMP accumulation incubated for 2 hrs by cAMP Alpha-screen assay. Type of experiment: functional, cell-based.
Experiment [3] is filed under the species Mus musculus. The experiment is described as follows: Selectivity index, ratio of EC50 for mouse melanocortin receptor 4 expressed in HEK293 cells to EC50 for mouse melanocortin receptor 3 expressed in HEK293 cells assessed as stimulation of cAMP accumulation incubated for 2 hrs by cAMP Alpha-screen assay. Type of experiment: cell-based.
The target in the next experiment is Melanocortin receptor 3 (Mus musculus, UniProt P33033). The experiment is described as follows: Agonist activity at mouse melanocortin receptor 3 expressed in HEK293 cells assessed as stimulation of cAMP accumulation incubated for 2 hrs by cAMP Alpha-screen assay. Type of experiment: functional, cell-based.
The target of experiment [4] is Melanocyte-stimulating hormone receptor (Mus musculus) (UniProt Q01727). As to the kind of experiment: Partial agonist activity at mouse melanocortin receptor 1 expressed in HEK293 cells assessed as stimulation of cAMP accumulation incubated for 2 hrs by cAMP Alpha-screen assay relative to NDP-MSH. Type of experiment: functional, cell-based. To be noted: filed as partial agonist.

Experiment [5] concerns the target Melanocortin receptor 4 (Mus musculus) (UniProt P56450). The experiment is described as follows: Agonist activity at mouse melanocortin receptor 4 expressed in HEK293 cells assessed as stimulation of cAMP accumulation at 100 uM incubated for 2 hrs by cAMP Alpha-screen assay relative to control. Type of experiment: functional, cell-based.
Experiment [6] addresses T1, Melanocortin receptor 4. The experiment is described as follows: Antagonist activity at mouse melanocortin receptor 4 expressed in HEK293 cells assessed as inhibition of NDP-MSH-induced cAMP accumulation incubated for 2 hrs by cAMP Alpha-screen assay based Schild analysis. Type of experiment: functional, cell-based. To be noted: for Kb: read-out: pA2 (converted).
For experiment [7], the species on record is Mus musculus. As to the kind of experiment: Selectivity index, ratio of Ki for mouse melanocortin receptor 4 expressed in HEK293 cells to EC50 for mouse melanocortin receptor 3 expressed in HEK293 cells assessed as stimulation of cAMP accumulation incubated for 2 hrs by cAMP Alpha-screen assay. Type of experiment: cell-based.

Melanocortin receptor 5, sequence (P41149 whole entry): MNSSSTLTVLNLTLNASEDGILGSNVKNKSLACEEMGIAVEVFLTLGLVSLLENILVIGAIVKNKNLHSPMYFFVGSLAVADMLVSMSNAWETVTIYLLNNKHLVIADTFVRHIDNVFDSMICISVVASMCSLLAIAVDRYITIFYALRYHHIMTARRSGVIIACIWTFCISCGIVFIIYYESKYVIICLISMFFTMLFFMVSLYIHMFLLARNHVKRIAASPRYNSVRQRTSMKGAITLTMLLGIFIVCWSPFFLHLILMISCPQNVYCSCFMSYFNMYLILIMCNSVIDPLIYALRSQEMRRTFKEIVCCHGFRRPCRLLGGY
Melanocortin receptor 3, sequence (P33033 whole entry): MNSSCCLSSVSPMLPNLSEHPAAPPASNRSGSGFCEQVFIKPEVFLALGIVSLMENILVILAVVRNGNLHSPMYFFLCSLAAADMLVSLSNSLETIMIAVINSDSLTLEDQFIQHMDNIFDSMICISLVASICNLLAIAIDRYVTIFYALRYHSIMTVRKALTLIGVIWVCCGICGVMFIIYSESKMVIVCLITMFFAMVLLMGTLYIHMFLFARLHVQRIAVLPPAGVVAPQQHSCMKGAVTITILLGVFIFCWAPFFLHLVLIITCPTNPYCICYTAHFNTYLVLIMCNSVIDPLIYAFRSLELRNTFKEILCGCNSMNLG
Melanocyte-stimulating hormone receptor, sequence (Q01727 whole entry): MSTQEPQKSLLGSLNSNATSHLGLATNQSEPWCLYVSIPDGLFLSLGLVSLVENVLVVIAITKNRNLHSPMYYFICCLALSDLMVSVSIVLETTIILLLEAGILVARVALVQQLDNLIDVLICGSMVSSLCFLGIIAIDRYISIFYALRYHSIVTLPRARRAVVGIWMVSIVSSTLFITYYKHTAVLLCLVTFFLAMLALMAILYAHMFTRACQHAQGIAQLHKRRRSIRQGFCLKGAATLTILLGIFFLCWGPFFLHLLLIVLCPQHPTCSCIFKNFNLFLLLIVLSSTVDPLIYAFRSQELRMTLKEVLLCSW
Melanocortin receptor 4 (Mus musculus), sequence (P56450 whole entry): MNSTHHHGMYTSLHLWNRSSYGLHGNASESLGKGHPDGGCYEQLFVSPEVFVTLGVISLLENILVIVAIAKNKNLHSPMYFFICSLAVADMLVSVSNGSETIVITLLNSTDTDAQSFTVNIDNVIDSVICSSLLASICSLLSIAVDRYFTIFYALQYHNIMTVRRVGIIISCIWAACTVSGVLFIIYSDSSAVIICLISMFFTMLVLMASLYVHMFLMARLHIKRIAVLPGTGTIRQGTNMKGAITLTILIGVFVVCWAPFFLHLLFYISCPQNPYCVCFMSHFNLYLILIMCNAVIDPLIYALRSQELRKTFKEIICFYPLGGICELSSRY
T1 sequence (P56450 whole entry): as above
Melanocyte-stimulating hormone receptor (Mus musculus), sequence (Q01727 whole entry, looked up): as the sequence (Q01727 whole entry) above

In the case of `CC(=O)N[C@@H](CCCNC(=N)N)C(=O)N[C@@H](CCC(N)=O)C(=O)N[C@H](Cc1ccc(-c2ccccc2)cc1)C(=O)N1Cc2ccccc2C[C@@H]1C(N)=O`, the negative-log EC50 (pEC50) was 6.40 on Melanocortin receptor 4 [1], 7.96 in [2], 8.25 on Melanocortin receptor 5 and 7.85 on Melanocortin receptor 3. In addition, in the experiment listed under Mus musculus [3], the Ratio EC50 is 28.
As for `CC(=O)N[C@H](C(=O)N[C@@H](CCC(N)=O)C(=O)N[C@H](Cc1ccc(-c2ccccc2)cc1)C(=O)N1Cc2ccccc2C[C@H]1C(N)=O)C(C)C`, the Activity in experiment [4] turned out to be 85%; in [5] it was 20%. Also, the negative logarithm of the EC50 (pEC50) in experiment [2] was 7.10; at Melanocortin receptor 5 it was 7.51; on Melanocortin receptor 3 it was 6.96. At Melanocortin receptor 4 [6], the pKi was below 5.00. Also, the Kb on Melanocortin receptor 4 [6] was above 10 µM. Also, the Selectivity ratio in the experiment filed under Mus musculus [7] was above 90.
Regarding `CC(=O)N[C@H](C(=O)N[C@@H](CCC(N)=O)C(=O)N[C@H](Cc1ccc(-c2ccccc2)cc1)C(=O)N1Cc2ccccc2C[C@@H]1C(N)=O)C(C)C`, the values for the Activity in experiment [4] and in [5] (filed as agonist) were 75% and 40%, respectively. Besides, the negative-log EC50 (pEC50) in experiment [2] was 6.82; on Melanocortin receptor 5 it was 7.44; at Melanocortin receptor 3, 7.15. In addition, the pKi on Melanocortin receptor 4 [6] was below 5.00. Besides, the Kb on Melanocortin receptor 4 [6] was above 10 µM. For the same compound, the Selectivity ratio in the experiment listed under Mus musculus [7] was above 140.
Consider `CC(=O)N[C@H](C(=O)N[C@@H](CCCNC(=N)N)C(=O)N[C@H](Cc1ccc(-c2ccccc2)cc1)C(=O)N1Cc2ccccc2C[C@H]1C(N)=O)C(C)C`, for which the Activity in experiment [5] amounted to 10%. Also, the values for the pEC50 (in experiment [2]; at Melanocortin receptor 5; on Melanocortin receptor 3) were 8.96, 7.74 and 7.40, respectively. Also, the pKi at Melanocortin receptor 4 [6] was 6.40. In addition, the Kb at Melanocortin receptor 4 [6] was 0.398 µM. Moreover, the Selectivity ratio in the experiment listed under Mus musculus [7] amounted to 10.
On to `CC(=O)N[C@@H](CCCNC(=N)N)C(=O)N[C@@H](CCCNC(=N)N)C(=O)N[C@H](Cc1ccc(-c2ccccc2)cc1)C(=O)N1Cc2ccccc2C[C@H]1C(N)=O`, for which, in experiment [5], the Activity came to 35%. Also, the results for the pEC50 (in experiment [2]; at Melanocortin receptor 5; at Melanocortin receptor 3) were 9.64, 8.46 and 7.96, respectively. For the same compound, the pKi on Melanocortin receptor 4 [6] is 6.90. On Melanocortin receptor 4 [6], the Kb was 0.126 µM. The Selectivity ratio in the experiment listed under Mus musculus [7] was 11.
As for `CC(=O)N[C@@H](Cc1c[nH]cn1)C(=O)N[C@@H](CCC(N)=O)C(=O)N[C@H](Cc1ccc(-c2ccccc2)cc1)C(=O)N1Cc2ccccc2C[C@H]1C(N)=O`, the Activity in experiment [5] turned out to be 20%. The negative logarithm of the EC50 (pEC50) in experiment [2] was 6.80; at Melanocortin receptor 5 it was 7.51; on Melanocortin receptor 3, 6.82. For the same compound, the pKi on Melanocortin receptor 4 [6] is 5.00. Moreover, the Kb on Melanocortin receptor 4 [6] was 10 µM. In addition, the Selectivity ratio in the experiment filed under Mus musculus [7] was found to be 65.
As for `CC(=O)N[C@H](C(=O)N[C@@H](CCCNC(=N)N)C(=O)N[C@H](Cc1ccc(-c2ccccc2)cc1)C(=O)N1Cc2ccccc2C[C@@H]1C(N)=O)C(C)C`, in experiment [5], the Activity amounted to 35%. Further, the figures for the negative-log EC50 (pEC50) (in experiment [2]; at Melanocortin receptor 5; at Melanocortin receptor 3) were 8.77, 7.60 and 7.44, respectively. The pKi on Melanocortin receptor 4 [6] is 6.60. Further, at Melanocortin receptor 4 [6], the Kb is 0.251 µM. Moreover, the Selectivity ratio in the experiment filed under Mus musculus [7] came out at 7.
For the compound `CC(=O)N[C@@H](Cc1c[nH]cn1)C(=O)N[C@@H](CCCNC(=N)N)C(=O)N[C@H](Cc1ccc(-c2ccccc2)cc1)C(=O)N1Cc2ccccc2C[C@@H]1C(N)=O`, the Activity in [5] came to 35%. Moreover, the pEC50 in experiment [2] is 9.05; on Melanocortin receptor 5 it was 7.59; at Melanocortin receptor 3 it was 7.41. For the same compound, on Melanocortin receptor 4 [6], the pKi was 6.49. In addition, on Melanocortin receptor 4 [6], the Kb was 0.316 µM. Besides, the Selectivity ratio in the experiment filed under Mus musculus [7] amounted to 8.
Regarding `CC(=O)N[C@@H](Cc1c[nH]cn1)C(=O)N[C@@H](CCCNC(=N)N)C(=O)N[C@H](Cc1ccc(-c2ccccc2)cc1)C(=O)N1Cc2ccccc2C[C@H]1C(N)=O`, the Activity in experiment [5] came out at 35%. For the same compound, the pEC50 is 9.30 in experiment [2], 8.05 at Melanocortin receptor 5 and 7.66 at Melanocortin receptor 3. For the same compound, the pKi on Melanocortin receptor 4 [6] was 6.49. Moreover, the Kb on Melanocortin receptor 4 [6] was 0.316 µM. Besides, the Selectivity ratio in the experiment listed under Mus musculus [7] was 14.
In the case of `CC(=O)N[C@@H](CCCNC(=N)N)C(=O)N[C@@H](CCC(N)=O)C(=O)N[C@H](Cc1ccc(-c2ccccc2)cc1)C(=O)N1Cc2ccccc2C[C@H]1C(N)=O`, the Activity in experiment [5] (filed as agonist) came out at 40%. For the same compound, the pEC50 in [2] is 7.22; on Melanocortin receptor 5, 7.79; on Melanocortin receptor 3, 7.18. On Melanocortin receptor 4 [6], the pKi is 5.70. The Kb on Melanocortin receptor 4 [6] was 2 µM. Besides, in the experiment listed under Mus musculus [7], the Selectivity ratio was 30.
With `CC(=O)N[C@@H](CCCNC(=N)N)C(=O)N[C@@H](CCCNC(=N)N)C(=O)N[C@H](Cc1ccc(-c2ccccc2)cc1)C(=O)N1Cc2ccccc2C[C@@H]1C(N)=O`, the Activity in [5] (filed as agonist) was found to be 40%. Also, the pEC50 was 9.22 in experiment [2], 8.24 on Melanocortin receptor 5 and 7.85 on Melanocortin receptor 3. Also, the pKi at Melanocortin receptor 4 [6] was 6.80. Also, the Kb on Melanocortin receptor 4 [6] is 0.158 µM. Moreover, in the experiment filed under Mus musculus [7], the Selectivity ratio came to 11.
On to `CC(=O)N[C@@H](Cc1c[nH]cn1)C(=O)N[C@@H](CCC(N)=O)C(=O)N[C@H](Cc1ccc(-c2ccccc2)cc1)C(=O)N1Cc2ccccc2C[C@@H]1C(N)=O`, for which the Activity in [5] (filed as agonist) is 50%. Moreover, the pEC50 was 6.91 in experiment [2], 7.41 at Melanocortin receptor 5 and 6.96 at Melanocortin receptor 3. Moreover, the pKi at Melanocortin receptor 4 [6] was 5.40. Besides, at Melanocortin receptor 4 [6], the Kb is 3.98 µM. For the same compound, in the experiment filed under Mus musculus [7], the Selectivity ratio turned out to be 36.
